Reference: the NIST ThermoML archive (doi:10.1021/je0501843)
Numbers after ± are expanded uncertainties.

Assay: wn = mass fraction of the nth substance listed
Details: Fluid (supercritical or subcritical phases), isochoric method, w1 = 0.5001

FC(F)C(F)(F)F [pentafluoroethane] + FCF
Details	mass density [kg/m3]
363 K, 13894 kPa	858.1 ± 1.7
364 K, 6970 kPa	475.8 ± 1.3
364 K, 7223 kPa	525.7 ± 1.3
364 K, 7494 kPa	571.2 ± 1.3
364 K, 7828 kPa	614.6 ± 1.4
364 K, 10192 kPa	760.2 ± 1.6
364 K, 14207 kPa	858 ± 1.7
365 K, 7077 kPa	475.8 ± 1.2
365 K, 7344 kPa	525.7 ± 1.3
365 K, 7632 kPa	571.2 ± 1.3
365 K, 7982 kPa	614.6 ± 1.3
365 K, 10427 kPa	760.1 ± 1.6
365 K, 14520 kPa	857.9 ± 1.7
366 K, 7184 kPa	475.8 ± 1.2
366 K, 7465 kPa	525.6 ± 1.2
366 K, 7771 kPa	571.1 ± 1.3
366 K, 8137 kPa	614.5 ± 1.3
366 K, 10664 kPa	760 ± 1.6
366 K, 14835 kPa	857.8 ± 1.7
367 K, 7291 kPa	475.8 ± 1.2
367 K, 7587 kPa	525.6 ± 1.2
367 K, 7907 kPa	571.1 ± 1.3
367 K, 8294 kPa	614.5 ± 1.3
367 K, 10900 kPa	760 ± 1.6
367 K, 15148 kPa	857.7 ± 1.7
368 K, 7397 kPa	475.8 ± 1.2
368 K, 7708 kPa	525.6 ± 1.2
368 K, 8044 kPa	571.1 ± 1.3
368 K, 8449 kPa	614.5 ± 1.3
368 K, 11133 kPa	759.9 ± 1.6
368 K, 15462 kPa	857.7 ± 1.7
369 K, 7504 kPa	475.7 ± 1.2
369 K, 7831 kPa	525.6 ± 1.2
369 K, 8183 kPa	571 ± 1.3
369 K, 8605 kPa	614.4 ± 1.3
369 K, 11369 kPa	759.9 ± 1.6
369 K, 15777 kPa	857.6 ± 1.7
370 K, 7612 kPa	475.7 ± 1.1
370 K, 7953 kPa	525.5 ± 1.2
370 K, 8323 kPa	571 ± 1.3
370 K, 8762 kPa	614.4 ± 1.3
370 K, 11608 kPa	759.8 ± 1.5
370 K, 16094 kPa	857.5 ± 1.7
371 K, 7719 kPa	475.7 ± 1.1
371 K, 8075 kPa	525.5 ± 1.2
371 K, 8460 kPa	571 ± 1.2
371 K, 8917 kPa	614.3 ± 1.3
371 K, 11844 kPa	759.7 ± 1.5
371 K, 16410 kPa	857.4 ± 1.7
372 K, 7825 kPa	475.7 ± 1.1
372 K, 8198 kPa	525.5 ± 1.2
372 K, 8601 kPa	571 ± 1.2
372 K, 9073 kPa	614.3 ± 1.3
372 K, 12081 kPa	759.7 ± 1.5
372 K, 16724 kPa	857.4 ± 1.7
373 K, 7931 kPa	475.7 ± 1.1
373 K, 8321 kPa	525.5 ± 1.2
373 K, 8740 kPa	570.9 ± 1.2
373 K, 9230 kPa	614.3 ± 1.3
373 K, 12318 kPa	759.6 ± 1.5
373 K, 17037 kPa	857.3 ± 1.7
374 K, 8039 kPa	475.6 ± 1.1
374 K, 8445 kPa	525.4 ± 1.2
374 K, 8878 kPa	570.9 ± 1.2
374 K, 9389 kPa	614.2 ± 1.3
374 K, 12556 kPa	759.6 ± 1.5
374 K, 17355 kPa	857.2 ± 1.7
375 K, 8147 kPa	475.6 ± 1.1
375 K, 8567 kPa	525.4 ± 1.2
375 K, 9016 kPa	570.9 ± 1.2
375 K, 9544 kPa	614.2 ± 1.3
375 K, 12795 kPa	759.5 ± 1.5
375 K, 17669 kPa	857.1 ± 1.7
376 K, 8254 kPa	475.6 ± 1.1
376 K, 8690 kPa	525.4 ± 1.1
376 K, 9155 kPa	570.8 ± 1.2
376 K, 9701 kPa	614.2 ± 1.3
376 K, 13033 kPa	759.5 ± 1.5
376 K, 17984 kPa	857.1 ± 1.7
377 K, 8362 kPa	475.6 ± 1.1
377 K, 8813 kPa	525.4 ± 1.1
377 K, 9295 kPa	570.8 ± 1.2
377 K, 9858 kPa	614.1 ± 1.3
377 K, 13272 kPa	759.4 ± 1.5
377 K, 18301 kPa	857 ± 1.7
378 K, 8469 kPa	475.6 ± 1.1
378 K, 8937 kPa	525.3 ± 1.1
378 K, 9437 kPa	570.8 ± 1.2
378 K, 10018 kPa	614.1 ± 1.3
378 K, 13511 kPa	759.3 ± 1.5
378 K, 18619 kPa	856.9 ± 1.7
379 K, 8575 kPa	475.5 ± 1.1
379 K, 9060 kPa	525.3 ± 1.1
379 K, 9576 kPa	570.7 ± 1.2
379 K, 10174 kPa	614 ± 1.3
379 K, 13747 kPa	759.3 ± 1.5
379 K, 18935 kPa	856.8 ± 1.7
380 K, 8683 kPa	475.5 ± 1
380 K, 9183 kPa	525.3 ± 1.1
380 K, 9715 kPa	570.7 ± 1.2
380 K, 10331 kPa	614 ± 1.3
380 K, 13988 kPa	759.2 ± 1.5
381 K, 8790 kPa	475.5 ± 1
381 K, 9306 kPa	525.2 ± 1.1
381 K, 9856 kPa	570.7 ± 1.2
381 K, 10492 kPa	614 ± 1.3
381 K, 14227 kPa	759.2 ± 1.5
382 K, 8897 kPa	475.5 ± 1
382 K, 9432 kPa	525.2 ± 1.1
382 K, 9996 kPa	570.6 ± 1.2
382 K, 10651 kPa	613.9 ± 1.3
382 K, 14466 kPa	759.1 ± 1.5
383 K, 9005 kPa	475.4 ± 1
383 K, 9553 kPa	525.2 ± 1.1
383 K, 10136 kPa	570.6 ± 1.2
383 K, 10808 kPa	613.9 ± 1.3
383 K, 14706 kPa	759 ± 1.5
384 K, 9112 kPa	475.4 ± 1
384 K, 9679 kPa	525.2 ± 1.1
384 K, 10277 kPa	570.6 ± 1.2
384 K, 10967 kPa	613.8 ± 1.3
384 K, 14944 kPa	759 ± 1.5
385 K, 9219 kPa	475.4 ± 1
385 K, 9804 kPa	525.1 ± 1.1
385 K, 10418 kPa	570.5 ± 1.2
385 K, 11125 kPa	613.8 ± 1.3
385 K, 15188 kPa	758.9 ± 1.5
386 K, 9326 kPa	475.4 ± 1
386 K, 9929 kPa	525.1 ± 1.1
386 K, 10558 kPa	570.5 ± 1.2
386 K, 11283 kPa	613.8 ± 1.3
386 K, 15426 kPa	758.9 ± 1.5
387 K, 9434 kPa	475.3 ± 1
387 K, 10051 kPa	525.1 ± 1.1
387 K, 10699 kPa	570.5 ± 1.2
387 K, 11442 kPa	613.7 ± 1.3
387 K, 15666 kPa	758.8 ± 1.5
388 K, 9540 kPa	475.3 ± 1
388 K, 10174 kPa	525 ± 1.1
388 K, 10840 kPa	570.4 ± 1.2
388 K, 11602 kPa	613.7 ± 1.3
388 K, 15904 kPa	758.7 ± 1.5
389 K, 9649 kPa	475.3 ± 1
389 K, 10296 kPa	525 ± 1.1
389 K, 10980 kPa	570.4 ± 1.2
389 K, 11761 kPa	613.6 ± 1.3
389 K, 16147 kPa	758.7 ± 1.5
390 K, 9756 kPa	475.3 ± 1
390 K, 10421 kPa	525 ± 1.1
390 K, 11124 kPa	570.3 ± 1.2
390 K, 11922 kPa	613.6 ± 1.3
390 K, 16388 kPa	758.6 ± 1.5
391 K, 9862 kPa	475.2 ± 1
391 K, 10547 kPa	524.9 ± 1.1
391 K, 11263 kPa	570.3 ± 1.2
391 K, 12081 kPa	613.6 ± 1.3
391 K, 16627 kPa	758.6 ± 1.5
392 K, 9969 kPa	475.2 ± 1
392 K, 10670 kPa	524.9 ± 1.1
392 K, 11403 kPa	570.3 ± 1.2
392 K, 12239 kPa	613.5 ± 1.3
392 K, 16868 kPa	758.5 ± 1.5
393 K, 10077 kPa	475.2 ± 1
393 K, 10795 kPa	524.9 ± 1.1
393 K, 11546 kPa	570.2 ± 1.2
393 K, 12400 kPa	613.5 ± 1.3
393 K, 17110 kPa	758.4 ± 1.5
394 K, 10185 kPa	475.2 ± 1
394 K, 10920 kPa	524.9 ± 1.1
394 K, 11688 kPa	570.2 ± 1.2
394 K, 12560 kPa	613.4 ± 1.3
394 K, 17351 kPa	758.4 ± 1.5
395 K, 10292 kPa	475.1 ± 1
395 K, 11045 kPa	524.8 ± 1.1
395 K, 11829 kPa	570.2 ± 1.2
395 K, 12720 kPa	613.4 ± 1.3
395 K, 17590 kPa	758.3 ± 1.5
396 K, 10400 kPa	475.1 ± 1
396 K, 11168 kPa	524.8 ± 1.1
396 K, 11972 kPa	570.1 ± 1.2
396 K, 12880 kPa	613.4 ± 1.3
396 K, 17831 kPa	758.3 ± 1.5
397 K, 10508 kPa	475.1 ± 1
397 K, 11292 kPa	524.8 ± 1.1
397 K, 12113 kPa	570.1 ± 1.2
397 K, 13040 kPa	613.3 ± 1.3
397 K, 18073 kPa	758.2 ± 1.5
398 K, 10616 kPa	475 ± 1
398 K, 11415 kPa	524.7 ± 1.1
398 K, 12256 kPa	570.1 ± 1.2
398 K, 13199 kPa	613.3 ± 1.3
398 K, 18315 kPa	758.1 ± 1.5
399 K, 10723 kPa	475 ± 1
399 K, 11538 kPa	524.7 ± 1.1
399 K, 12395 kPa	570 ± 1.2
399 K, 13361 kPa	613.2 ± 1.3
399 K, 18556 kPa	758.1 ± 1.5
